In patent publication US20180221343A1, “PHARMACEUTICAL COMPOSITION FOR PREVENTING OR TREATING MACULAR DEGENERATION” (KOREA RESEARCH INSTITUTE OF CHEMICAL TECHNOLOGY, priority 2011, published 2018):

How the values were obtained:
[1] = tested on: rat corneal epithelial wound; test: Corneal Wound Healing Assay (2); type: in vivo, SD rats; settings: topical 3 and 6 mg/ml every 6 hour; observed at 0 and 18 hours
Protocol: SD rats (male, 8 weeks, 250 g) were used. Animal study protocol was in accordance with the Association for Research in Vision and Ophthalmology Statement for the Use of Animals in Ophthalmic and Visual Research. All animals were housed in individual cages and maintained under standard conditions (12 hour light-dark cycle).
Rats were anesthetized by Zoletil® (50 mg/kg, Tiletamina 25 mg, Zolazepam 25 mg; Vibrac, Carros, France) and Rompun® (10 mg/kg, Bayer, France). The cornea was anesthetized by topical 0.5% proparacaine (Alcaine®; Alcon, Fort Worth, Tex., USA). After applying 0.5% proparacaine drops, 5.0 mm Trephine Blade® (Katena, Denville, N.J., USA) was placed and fixed firmly on the corneal surface. One drop of 20% ethanol were put into the tephine well and left in place for 30 seconds, then absorbed with a dry cellulose sponge (Merocel®; Medtronic Solan, Jacksonville, Fla., USA) and irrigated with normal saline. And the epithelium was removed in 6.0 mm diameter.
The drugs were each topically applied in 3 mg/ml (0.3%) and 6 mg/ml (0.6%) concentrations (in 5% DMSO, 10% PEG (Mw 400) and 85% saline (0.9% NaCl)) in every 6 hour, respectively.
The corneal wounds were captured by digital camera under cobalt blue light and the defect area was analyzed by Image J software (Ver 4.1, NIH). The significance between Vehicle and each group was analyzed by paired T-test, and the significance of the test was analyzed by One Way ANOVA analysis.

[2] = tested on: corneal epithelial cells; test: Effects on normal regeneration of corneal epithelial cells in animal models; type: in vivo, rats; settings: eye drop 50 μl twice a day
Protocol: Animal models having damage in the corneal epithelial cells were established by anesthetizing rats (8 weeks old, 200 g to 250 g) with a mixed solution of rompun and zoletil (1 ml/kg) and then scraping the corneal epithelial cells at the center of the cornea in a circular form having 2 mm diameter with a surgical knife. The removal of corneal epithelial cells was confirmed with a 1% fluorescein solution. The eye drop formulation (50 μl) used in Example 2 was administered twice a day, i.e., every 12 hours. The evaluations quantifying the photographs of FIG. 5 were performed by using the Image J (NIH, USA) program and the results thereof were shown in FIG. 6.

[3] = tested on: corneal angiogenesis; test: Inhibitory effects against corneal angiogenesis in animal models having corneal damage (subconjunctival injection); type: in vivo, Sprague Dawley rats; settings: subconjunctival injection 20 μl; KR 0.3 mg/ml, Avastin 10 mg/ml; 1 week after administration
Protocol: The tests were performed by using Sprague Dawley rats (8 weeks old, male) as animals having corneal damage (15 rats for the experiment group; and 1 rat for normal group, respectively). The corneal damage was induced by applying a cotton swab coated with silver nitrate to the surface of the rat corneas, as as to induce a damage having a diameter of 2 mm in the central cornea. On the third day after inducing the corneal damages, we confirmed the establishment of corneal angiogenesis-inducing models and then subconjunctivally injected a solution (20 μl) prepared by dissolving the compound of Preparation Example 23, i.e., (2R,3R,4S)-6-amino-4-[N-(4-chlorophenyl)-N-(1H-imidazol-2-ylmethyl)amino]-3-hydroxy-2-methyl-2-dimethoxymethyl-3,4-dihydro-2H-1-benzopyran (KR-31831) in phosphate buffered saline (PBS) containing 10% PEG 400, in the concentration of 0.3 mg/ml. In case of the control group, the PBS (20 μl) containing 10% PEG 400 was subconjunctivally injected. As a positive control, a solution (20 μl) prepared by dissolving Avastin (used as an angiogenesis inhibitor) in PBS in the concentration of 10 mg/ml was subconjunctivally injected. The evaluations quantifying the photographs of FIG. 1 were performed by using the Image J (NIH, USA) program and the results thereof were shown in FIG. 2.

[4] = tested on: retinal angiogenesis; test: Laser-induced retinal damage model, retinal angiogenesis by dextran-FITC fluorescence; type: in vivo, Brown Norway rats; settings: 2 weeks after administration
Protocol: The tests were performed by using Brown Norway rats (8 weeks old, male) as animals having retinal damage (15 rats for the experiment group; and 1 rat for normal group, respectively). The retinal Bruch's membrane of each Brown Norway rat was damaged using a Zeiss 532s laser at the intensity of […], 30 ms. On the third day after the laser-damaging, the drug was administered into the vitreous humor in order to observe the retinal vessels. The compound of the present invention, i.e., (2R,3R,4S)-6-amino-4-[N-(4-chlorophenyl)-N-(1H-imidazol-2-ylmethyl)amino]-3-hydroxy-2-methyl-2-dimethoxymethyl-3,4-dihydro-2H-1-benzopyran was administered with the solutions (10 μl of each solution) obtained by dissolving in PBS containing 30% PEG 400 and 10% DMSO, in the concentrations of 0.1 mg/ml and 0.3 mg/ml. Avastin was administered with the solution (10 μl) obtained by dissolving in PBS in the concentration of 2.5 mg/ml. In case of the control group, the PBS (10 μl) was administered. In addition, (2R,3R,4S)-6-amino-4-[N-(4-chlorophenyl)-N-(1H-imidazol-2-ylmethyl)amino]-3-hydroxy-2-methyl-2-dimethoxymethyl-3,4-dihydro-2H-1-benzopyran was intraperitoneally administered with the solution obtained by dissolving in PBS containing 30% PEG 400 and 10% DMSO, in the dose of 25 mg/kg. 2 weeks after the drug administrations, dextran-FITC was injected into the left ventricle in the dose of 25 mg/kg, followed by enucleating the eye after 5 minutes therefrom; and then fixing in a 10% formalin solution. The cornea and the eye lens were removed from the fixed eye, which was then observed under a fluorescence microscope. Angiogenesis was identified by the intensity and leakage of dextran-FITC in the laser-induced damage site; and the results thereof were shown in FIG. 7. The evaluations quantifying the photographs of FIG. 7 were performed by using the Image J (NIH, USA) program and the results thereof were shown in FIG. 8.

[5] = tested on: VEGF receptor 2 (FLK-1); test: Expression of VEGF receptor 2 (FLK-1) in corneal tissue by RT-PCR; type: in vivo, rats; settings: subconjunctival injection 20 μl; KR 0.3 mg/ml, Avastin 10 mg/ml
Protocol: The tests were performed for confirming corneal angiogenesis as a marker. To a Trizole™ solution (200 μl), were added each corneal tissue obtained from the rats of Example 1. Total RNAs were isolated and then cDNAs were prepared by using a reverse transcriptase. Each cDNA (5 μl) was mixed with the primer set of FLK-1 and then PCR amplication was performed in a thermocycler under the following conditions; denaturation at 94° C. for 5 minutes, and then 35 cycles of denaturation at 94° C. for 20 seconds, annealing at 58° C. for 1 minute, and extension at 72° C. for 25 seconds. Each PCR product was loaded on 1% agarose gel; and the resulting ethidium bromide fluorescent bands were identified.

With `COC(OC)[C@]1(C)Oc2ccc(N)cc2[C@H](N(Cc2ncc[nH]2)c2ccc(Cl)cc2)[C@H]1O` [KR-31831, (2R,3R,4S)-6-amino-4-[N-(4-chlorophenyl)-N-(1H-imidazol-2-ylmethyl)amino]-3-hydroxy-2-methyl-2-dimethoxymethyl-3,4-dihydro-2H-1-benzopyran] as the compound, how does the “inhibitory effect on normal healing of rat corneal epithelial wound” value [1] read?
Its value is “did not show inhibitory effect”.

And the “healing rate of corneal epithelial damage” value (shortened to “healing rate”) ([2]; 0 hour after the administration)?
Its value is 52±9%.

And the “healing rate” value ([2]; 18 hours after the administration)?
Its value is 55±9%.

And the “healing rate” value ([2]; 36 hours after the administration)?
Its value is 94±8%.

What about the “corneal angiogenesis in comparison with the corneal angiogenesis (100%) of the control group” value [3] of the same compound?
The value was 52.6±10%.

What about the “fluorescence intensity at laser-induced damage site (surrounding vessels = 100)” value (“fluorescence intensity” below) ([4]; 0.1 mg/ml, VI (10 μl into the vitreous humor)) of the same compound?
Its value is 53±2.8.

What about the “fluorescence intensity” value ([4]; 0.3 mg/ml, VI (10 μl into the vitreous humor)) of the same compound?
Its value is 45±3.1.

What about the “fluorescence intensity” value ([4]; 25 mg/kg, IP (intraperitoneal)) of the same compound?
The value was 51±5.

What about the “FLK-1 expression in the cornea (control group 100%)” value [5] of the same compound?
Its value is “about 30%”.
